Laboratory results taken from patent publication US20250179028A1, “ACRYLAMIDE COMPOUNDS” (NRG THERAPEUTICS LTD, priority 2022, published 2025).

Each molecule was assayed on mPTP (assay: mPTP mitochondria membrane potential flow cytometry assay in stimulated human platelets).
Type: cell-based
Procedure: The mPTP cell based assay was performed using a mitochondria membrane potential flow cytometry assay in stimulated human platelets. Simulation of platelets results in the rapid influx of Ca^2+ across the platelet membrane. The Ca^2+ is then sequestered by mitochondria until the threshold for mPTP opening is reached, at which point the pore opens and the mitochondrial membrane potential is dissipated. Changes in mitochondria membrane potential due to mPTP opening can be quantified in live platelets using standard mitochondrial membrane potential dyes e.g. 3,3′-dihexyloxacarbocyanine Iodide; DiOC6(3), enabling pharmacological characterisation of mPTP inhibitors.
Fresh human blood (20 ml) was collected from consenting donors into 3.2% sodium citrate. Platelets were isolated by centrifugation at 200 g for 20 min at room temperature, then the platelet rich plasma layer transferred to a fresh tube. Prostaglandin 12 is added to the platelets at a final concentration of 20 ng/ml. After centrifugation at 640 g for 10 min, the platelet rich pellet was resuspended in 4 ml HEPES assay buffer (137 mM NaCl, 2.7 mM KCl, 11.9 mM NaHCO3, 0.42 mM NaH2PO4, 1 mM MgCl2, 5.5 mM glucose, 0.1% bovine serum albumin, 10 mM HEPES adjusted to pH 7.4) and stored on ice.
Test compounds were prepared from 10 mM stocks in DMSO and serially diluted in assay buffer containing 0.4% DMSO and 25 μl transferred into a 96 well plate. Platelets were loaded with the mitochondrial membrane potential dye DiOC6(3) (3,3′-dihexyloxacarbocyanine Iodide; Invitrogen) at 200 nM for 30 min, then 50 μl plated into each well of the 96 well plate containing diluted test compound and incubated for 15 min. Control wells included DMSO (0.1% final concentration) only or 5 μM cyclosporin A. Platelets were then stimulation with the addition of assay buffer (25 μl) containing CaCl2, alpha thrombin and Convulxin to achieve a final concentrations of 2 mM, 0.017 U/ml and 0.167 μg/ml respectively and incubated for 14 min. The reaction was stopped by the addition of 25 μl 15 mM EDTA in assay buffer. The mitochondrial membrane potential across the population of platelets in each well was then quantified by flow cytometry using a Guava easyCyte 5 Benchtop Flow Cytometer with 3000 events per well. The percentage of platelets with a depolarised mitochondrial membrane potential was calculated for each well. A pIC50 for each compound was then calculated using a standard four parameter curve fit model (GraphPad Prism).

| Compound | mPTP Human Platelets pIC50 |
| --- | --- |
| Cc1c(F)cccc1NC(=O)/C=C/c1ccc2c(c1)NC(=O)C2 [Example 10, (E)-N-(3-fluoro-2-methylphenyl)-3-(2-oxoindolin-6-yl)acrylamide] | 7.0 |
| Cc1c(F)cccc1NC(=O)/C=C/c1ccc2cn[nH]c2c1 [Comparative Example 1, (E)-N-(2-methyl-3-fluorophenyl)-3-(1H-indazol-6-yl)acrylamide, reference compound] | 6.9 |
| Cc1c(F)cccc1NC(=O)/C=C/c1ccc2oc(=O)[nH]c2c1 [Example 6, (E)-N-(3-fluoro-2-methylphenyl)-3-(2-oxo-2,3-dihydrobenzo[d]oxazol-5-yl)acrylamide] | 7.0 |
| Cc1c(F)cccc1NC(=O)/C=C/c1ccc2c(c1)[nH]c(=O)n2C [Example 7, (E)-N-(3-fluoro-2-methylphenyl)-3-(1-methyl-2-oxo-2,3-dihydro-1H-benzo[d]imidazol-5-yl)acrylamide] | 7.2 |
